Data set [1] is described as follows: Viscosity of solutions and dispersions in cP. Format: physicochemical. The conditions noted are these: temperature printed per sample, 23.1-26.0° C. As to the method: Solid 2,4-dichlorophenoxyacetic acid (2,4-D) (0.158 g, 0.72 mmol) and fresh deionized water (50 mL) were added to a 100 mL glass beaker, along with a stir bar. The medium was connected to a pH meter and the reading was at 2.76. To the stirring dispersion, aqueous NaOH (10N) was added dropwise. As the pH increased, more solid 2,4-D dissolved the dispersion became more transparent. Eventually, all of the solid 2,4-D dissolved completely, and the solution appeared transparent. The pH and viscosity of the solution was measured at 10.76 and 0.93 cP at 25.4° C. For the reference, the viscosity of pure water was measured using the same instrument and shown a value of 0.92 cP at 26.4° C.

The nature of data set [2]: Pyrene fluorescent probe of nanoparticle microenvironment (I1/I3 ratio). It counts as physicochemical. To be noted: pyrene emission, excitation 340 nm.
From the text: The intensity ratio of the first and third vibronic bands (I1/I3) in the emission spectra of the pyrene monomer is very sensitive to the monomer's microenvironment, and can be used as a metric to gauge the hydrophobic nature of different polymer nanoparticles produced using the methods described in this patent.
The pyrene microenvironments from different polymer nanoparticles were probed for the following nanoparticles: Na^+-collapsed polyacrylic acid (Na-PAA), ZnO/polyacrylic nanoparticles (ZnO-PAA), Zn^2+-collapsed nanoparticles (Zn-PAA), Na^+-collapsed PMAA nanoparticles (Na-PMAA), Na^+-collapsed P(MAA-co-EA) nanoparticles (Na—P(MAA-EA), poly(vinyl pyrollidone)-collapsed polyacrylic acid nanoparticles (PVP/PAA). Aqueous pyrene-nanoparticle solutions were prepared as follows. 1.0 mg pyrene was dissolved in 10 mL discholormethane and was used as the stock pyrene solution (0.1 mg/mL). To prepare the aqueous pyrene-nanoparticle solutions, 10 micro liters of the stock pyrene solution was added to a 20 mL scintillation vial and was allowed to air dry in a fume hood for one hour. 80 mg of solid nanoparticles or polymer, 10 g of deionized water and a magnetic stir bar were then added to the vial. […] Emission spectra were measured on a Perkin Elmer LS 55 Luminescence Spectrometer using an excitation wavelength of 340 nm, having slit widths for both excitation and emission at 2.5 nm. […]

Consider `O=C(O)COc1ccc(Cl)cc1Cl` [2,4-D, 2,4-dichlorophenoxyacetic acid], for which the “Viscosity of solution or nanoparticle dispersion” value in data set [1] is 0.93 cP.
For the molecule `c1cc2ccc3cccc4ccc(c1)c2c34` [Pyrene - control, pyrene], the I1/I3 ratio in data set [2] (pH 6-8) was found to be 1.68; in data set [2] (pH 8-10) it was 1.70.

The record behind these values is patent US20200260724A1, “METHODS TO FORMULATE NEUTRAL ORGANIC COMPOUNDS WITH POLYMER NANOPARTICLES” (Vive Crop Protection Inc., priority 2010, published 2020).
